From patent US20190282563A1, “Selective c-FLIP Inhibitors as Anticancer Agents” (Centre National de la Recherche Scientifique, priority 2016, published 2019)
Entries after “also recorded” stand apart in the source; their conditions may differ.

Legend:
H1703-FLIP(L) cells [1] = test: Annexin V-PE flow cytometry apoptosis test, H1703-FLIP(L) cells (TRAIL alone, molecule alone or combination); assay type: cell-based, Human; settings: 18 hours; for sensitization to TRAIL-induced apoptosis (percentage of apoptosis, annexin V): molecule at its most suitable concentration combined with TRAIL 100 ng/mL
Procedure: (§1) Cell Culture. H1703 (Human non-small lung cancer cell line) cells were grown in RPMI 1640 (LONZA) culture media supplemented with 10% fetal bovine serum and puromycine antibiotic (2 μg/ml) from Sigma-Aldrich. The cells were kept in a humidified atmosphere in an incubator at 37° C. and 5% CO2. H1703 cells were a kind gift from O. Micheau (INSERM, Dijon, France).
(§2) Flow Cytometry Analysis. The apoptotic cell death was confirmed by flow cytometry (cytoFLEX, Backman Coulter). After treatment of cells with TRAIL alone, c-FLIP inhibitor alone, or co-admninistration TRAIL/c-FLIP inhibitor, the cells were collected, washed and re-suspended in 1× Annexin binding buffer. Annexin-V-PE was added to cells, and left 20 minutes at room temperature in the dark. Flow cytometric analysis was carried out in the final step.
(§3) Sensitivity of the H1703 cells to TRAIL: The first goal was to verify that the H1703 cells are sensitive to TRAIL. To do so, the cells were treated with TRAIL at a concentration of 100 ng/mL for 18 hours and then the cells were washed and incubated with Annexin V-PE to evaluate the apoptosis level using flow cytometry. […] So, the Inventors applied a range of concentrations for each molecule to determine the appropriate dose that has no toxic effect on the cells when administered alone.
Combination Treatment of TRAIL with each one of the 9 Identified Molecules: Following the identification of the best concentration for each compound, HE1703 cells were treated with TRAIL (100 ng/mL) alone or with one of the 9 identified molecules alone or with a combination of TRAIL and one of the 9 identified molecules for 18 hours. The percentage of apoptosis was measured by flow cytometry using an annexin V test, as described above. The results obtained are presented on FIGS. 2(A, B and C).

cFLIP/FADD interaction = target: T1, cFLIP/FADD interaction (Homo sapiens, UniProt O15519); test: Pull down assay of FADD/c-FLIP interaction (MBP-trap column, Western blot); assay type: binding; settings: c-FLIP(s) and FADD incubated 18 hours with molecule at different concentrations
T1 construct: made in house; host or cells: E. coli: Rosetta (pET24b, c-FLIP(s)) and DH5α (pMALC2, FADD)
Procedure: Transformation of Competent Bacteria. FLIP (s) and FADD genes were previously cloned and inserted in their respective plasmids pET24b and pMALC2, and provided as a kind gift from Pr. Richard Daniellou (ICOA, Orléans, France). Pet24b and Pmalc2 plasmids were mixed with their corresponding competent bacterial cells, Rosetta and DH5α cells respectively, and left on ice for 20 minutes. Heat-shocking steps were performed before adding LB medium and leaving cells to grow on 37° C. for 1 hour and then cells were spread on LB plates with appropriate antibiotics and incubated at 37° C. overnight.
Production of c-FLIP (s) and FADD proteins. Transformed competent cells were cultured in large amounts of LB growth at 37° C. and the expression of each protein was stimulated using 1M IPTG (Isopropyl β-D-1-thiogalactopyranoside) and cells were left to grow for 18 hours at 30° C. Cells were collected, centrifuged and resuspended in Tris/NaCl buffer (Tris 50 mM, NaCl 100 mM, pH 8.0) after which they were centrifuged at 6000 g, for 10 minutes at 4° C. Supernatant was removed and bacterial pellets were used for cell lysis and protein purification on Ni-NTA column and MBP-trap column for cFLIP(s) and FADD purification, respectively. The FLIP(s) is a His-tagged protein, and FADD is a MBP-tagged protein. The purified proteins were incubated with each molecule for 18 hours at +4° C. and then, the samples were passed again on MBP-trap columns.
Western Blot Analysis. The samples, purified and obtained after FADD/FLIP/compounds incubation, were run on 4-12% Bis-Tris polyacrylamide gels to evaluate the presence of FLIP and FADD bands.
Once purified, c-FLIP(s) and FADD were incubated for 18 hours with each one of the nine c-FLIP inhibitors at different concentrations. The samples were then passed on a MBP-trap column, which binds FADD (MBP-tagged protein). If cFLIP is still bound to FADD, then it is captured with FADD on the MBP column. Samples were then evaluated using a Western blot analysis by monitoring the disappearance of the c-FLIP band with increasing concentration of the c-FLIP inhibitor. Disappearance of the c-FLIP band in Western Blot corresponds to FADD-c-FLIP interaction inhibition.

H1703-Mock cells [2] = test: Cleavage of caspase-8, caspase-3 and PARP in H1703-mock cells; assay type: cell-based, Human
From the text: (§4) Reactivation of the Apoptotic Pathway by c-FLIP inhibitors combined with TRAIL: Cleavage of caspases is a marker of apoptosis pathway initiation. Thus, the present Inventors have studied the cleavage of caspase-8, of caspase-3 and of PARP (a caspase-3 substrate, which undergoes cleavage during apoptosis) in H1703-mock cells and in H1703-FLIP(L) cells, in the presence of TRAIL alone, in the presence of a c-FLIP inhibitor (molecules (1), (3), (4) and (9)), and of a combination of TRAIL and one of the c-FLIP inhibitors. The results obtained are presented on FIG. 4(A)-(B). […] However, no cleavage was observed when H1703-MOCK cells were treated with a c-FLIP inhibitor alone.

H1703-FLIP(L) cells [3] = test: Cleavage of caspase-8, caspase-3 and PARP in H1703-FLIP(L) cells; assay type: cell-based, Human; settings: H1703 cells overexpressing FLIP
From the text: as §4

H1703-Mock cells [4] = test: Annexin V-PE flow cytometry apoptosis test, H1703-Mock cells; assay type: cell-based, Human; settings: TRAIL 100 ng/mL, 18 hours
Procedure: as §1, §2, §3

[5] = TRAIL combined with c-FLIP inhibitor
[6] = combination of TRAIL and c-FLIP inhibitor

Row | Molecule | sensitization to TRAIL-induced apoptosis (percentage of apoptosis, annexin V) (H1703-FLIP(L) cells [1]) | inhibition of the interaction between FADD and c-FLIP (disappearance of the c-FLIP band) (cFLIP/FADD interaction) | cleavage of caspase-8, caspase-3 and PARP (H1703-Mock cells [2]; [5]) | cleavage of caspase-8, caspase-3 and PARP (H1703-Mock cells [2]; c-FLIP inhibitor alone) | cleavage of caspase-8, caspase-3 and PARP (H1703-FLIP(L) cells [3]; c-FLIP inhibitor alone) | cleavage of caspase-8, caspase-3 and PARP (H1703-FLIP(L) cells [3]; [6]) | level of apoptosis (H1703-Mock cells [4]) | effect of TRAIL alone on apoptosis (H1703-FLIP(L) cells [1]; TRAIL 100 ng/mL, H1703-FLIP(L) cells overexpressing c-FLIP) | cleavage of caspase-8, caspase-3 and PARP (H1703-Mock cells [2]; TRAIL alone) | cleavage of caspase-8, caspase-3 and PARP (H1703-FLIP(L) cells [3]; TRAIL alone)
1 | Cc1cc(/N=N/c2c(O)nc3ccccc3c2O)ccc1/N=N/c1ccc(C(=O)N(C)C)cc1 [Molecule (1)] | most active | inhibit the interaction between FADD and c-FLIP | cleavage of caspase-8, caspase-3 and PARP | no cleavage | no cleavage observed | induce cleavage of caspase-8, caspase-3 and PARP |  |  |  | 
2 | N#Cc1cc(-c2ccccc2)[nH]c1-c1nccc2ccccc12 [Molecule (3)] | most active | inhibit the interaction between FADD and c-FLIP | cleavage of caspase-8, caspase-3 and PARP | no cleavage | no cleavage observed | induce cleavage of caspase-8, caspase-3 and PARP |  |  |  | 
3 | Cc1c2cnccc2c(C)c2c1c1ccccc1n2CCOC(=O)c1ccccc1 [Molecule (4)] | most active | inhibit the interaction between FADD and c-FLIP | cleavage of caspase-8, caspase-3 and PARP | no cleavage | no cleavage observed | induce cleavage of caspase-8, caspase-3 and PARP |  |  |  | 
4 | NS(=O)(=O)c1ccc(NC(=S)NC(=O)c2ccco2)cc1 [Molecule (6)] |  | no effect |  |  |  |  |  |  |  | 
5 | CC1=C(C)Cc2c(OC(=O)c3ccccc3)ccc(OC(=O)c3ccccc3)c2C1 [Molecule (7)] |  | inhibit the interaction between FADD and c-FLIP |  |  |  |  |  |  |  | 
6 | Cc1cccc(Nc2sc(C(=O)c3cc4cc(Cl)ccc4o3)c(N)c2C#N)c1 [Molecule (9)] | most active | inhibit the interaction between FADD and c-FLIP | cleavage of caspase-8, caspase-3 and PARP | no cleavage | no cleavage observed | induce cleavage of caspase-8, caspase-3 and PARP |  |  |  | 
7 | TRAIL: death ligand TRAIL; KillerTRAIL (human recombinant BULK) purchased from Alexis Biochemicals (protein, UniProt P50591 39-281, looked up, extracellular domain KillerTRAIL recombinant, Alexis, death ligand TRAIL; KillerTRAIL (human recombinant BULK) purchased from Alexis Biochemicals) extracellular domain: TNELKQMQDKYSKSGIACFLKEDDSYWDPNDEESMNSPCWQVKWQLRQLVRKMILRTSEETISTVQEKQQNISPLVRERGPQRVAAHITGTRGRSNTLSSPNSKNEKALGRKINSWESSRSGHSFLSNLHLRNGELVIHEKGFYYIYSQTYFRFQEEIKENTKNDKQMVQYIYKYTSYPDPILLMKSARNSCWSKDAEYGLYSIYQGGIFELKENDRIFVSVTNEHLIDMDHEASFFGAFLVG |  |  |  |  |  |  | more than 60% | resistant to TRAIL; also recorded: no effect | cleavage of caspase-8, caspase-3 and PARP | no cleavage observed
